Experimental data from patent US20150353495A1 (PORTOLA PHARMACEUTICALS, INC., priority 2010, published 2015).
Each block holds one compound with its values, some of them ahead of it.

Assays:
JAK3 = molecular target: T1, JAK3 (Homo sapiens, UniProt P52333); assay: Z'-LYTE kinase assay JAK3; assay type: biochemical
T1 construct: 5 μl of catalytic domain recombinant Kinase enzyme+Tyr peptide substrate (Invitrogen, CA); purchased Invitrogen
How it was run: (§1)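 Catalytic-domain recombinant kinase was incubated with Tyr6 FRET peptide, ATP and compound (1% DMSO final) for 1 h at room temperature. Protease development followed for 1 h, cleaving only non-phosphorylated peptide. Inhibition of phosphorylation was read as coumarin/fluorescein FRET fluorescence.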

JAK1 = molecular target: T2, JAK1 (Homo sapiens, UniProt P23458); assay: Z'-LYTE kinase assay JAK1; assay type: biochemical
T2 construct: 5 μl of catalytic domain recombinant Kinase enzyme+Tyr peptide substrate (Invitrogen, CA); purchased Invitrogen
T2 sequence (P23458 875-1153 limits assumed): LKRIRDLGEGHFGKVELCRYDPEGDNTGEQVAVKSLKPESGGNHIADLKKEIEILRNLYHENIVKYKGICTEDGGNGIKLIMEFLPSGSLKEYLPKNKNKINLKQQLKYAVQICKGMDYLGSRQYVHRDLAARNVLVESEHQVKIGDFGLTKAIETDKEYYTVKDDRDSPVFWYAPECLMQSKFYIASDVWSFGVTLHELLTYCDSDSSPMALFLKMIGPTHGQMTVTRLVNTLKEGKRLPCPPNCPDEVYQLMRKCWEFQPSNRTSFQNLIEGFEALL
How it was run: as §1

TYK2 = molecular target: T3, TYK2 (Homo sapiens, UniProt P29597); assay: Z'-LYTE kinase assay TYK2; assay type: biochemical
T3 construct: 5 μl of catalytic domain recombinant Kinase enzyme+Tyr peptide substrate (Invitrogen, CA); purchased Invitrogen
T3 sequence (P29597 897-1176 limits assumed): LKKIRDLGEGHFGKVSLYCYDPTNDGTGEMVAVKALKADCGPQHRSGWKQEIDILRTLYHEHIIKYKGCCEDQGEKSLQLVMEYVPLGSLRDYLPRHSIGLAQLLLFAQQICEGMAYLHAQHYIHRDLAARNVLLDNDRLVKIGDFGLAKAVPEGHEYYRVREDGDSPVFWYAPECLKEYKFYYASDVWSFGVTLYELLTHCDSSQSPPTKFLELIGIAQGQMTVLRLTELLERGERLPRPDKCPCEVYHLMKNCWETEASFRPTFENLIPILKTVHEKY
How it was run: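 Recombinant catalytic-domain TYK2 with Tyr6 peptide in Z′-LYTE FRET format, 1% DMSO final, kinase reaction 1 h at room temperature, then protease development 1 h. Fluorescence read at 445/520 nm (excitation 400 nm), percent phosphorylation vs no-inhibitor control, IC50 from 4-parameter logistic fit.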

[1] = tested on: JAK1/3 signaling to STAT5 in primary T cells; assay: IL2 stimulation of JAK1/3 signaling to STAT5 in primary T cells (pSTAT5 Y694, FACS); assay type: cell-based; conditions: T-cell; for inhibition at 0.2 µM: 0.2 uM compound, read-out: IL-2/STAT5 Percent Inhibition at 0.2 uM; for inhibition at 1 µM: 1.0 μM compound, read-out: IL-2/STAT5 Percent Inhibition at 1.0 μM
Description: IL2 Stimulation of JAK1/3 Signaling to STAT5 in Primary T Cells:
The effect of JAK inhibitors on cytokine signaling pathways utilizing JAK3 was determined using an IL2 stimulation assay. IL2 engages a receptor complex that contains the IL2 receptor alpha and beta subunits, and the common gamma chain, to initiate activation of JAK1 and JAK3 leading to phosphorylation of STAT5 at tyrosine position 694. Lymphocytes are isolated from heparinized whole blood over a ficoll gradient, then resuspended in tissue culture media containing 10% fetal calf serum at 10×10̂6 cells/ml. 100 μl aliquots are pre-treated for 1 hour with various concentrations of compound, and then stimulated for 12 minutes with 100 U/ml IL2. The signaling reaction is terminated by fixing in 2% paraformaldehyde for 10 minutes at room temperature. Fixed cells are then washed and permeablized by suspension in 50% methanol (in PBS) at −80° C. Following overnight incubation at 4° C., cells are washed and resuspended in PBS containing 0.5% bovine serum albumin containing CD3-APC and pSTAT5 Y694-PE conjugated antibodies. After 1 hour incubation, cells are washed and the extent of STAT5 phosphorlyation in T cells is measured by FACS analysis.

JAK2 = molecular target: T4, JAK2 (Homo sapiens, UniProt O60674); assay: Z'-LYTE kinase assay JAK2; assay type: biochemical
T4 construct: 5 μl of catalytic domain recombinant Kinase enzyme+Tyr peptide substrate (Invitrogen, CA); purchased Invitrogen
T4 sequence (O60674 849-1124 limits assumed): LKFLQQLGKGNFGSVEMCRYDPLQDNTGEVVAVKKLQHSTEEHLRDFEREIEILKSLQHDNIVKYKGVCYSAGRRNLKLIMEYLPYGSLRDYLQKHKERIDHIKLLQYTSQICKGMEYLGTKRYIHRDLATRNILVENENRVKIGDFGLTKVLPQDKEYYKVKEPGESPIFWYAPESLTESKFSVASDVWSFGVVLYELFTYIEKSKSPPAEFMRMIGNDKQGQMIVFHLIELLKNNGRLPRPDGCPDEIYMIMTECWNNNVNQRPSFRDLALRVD
How it was run: as §1

T1 sequence (P52333 822-1111 limits assumed): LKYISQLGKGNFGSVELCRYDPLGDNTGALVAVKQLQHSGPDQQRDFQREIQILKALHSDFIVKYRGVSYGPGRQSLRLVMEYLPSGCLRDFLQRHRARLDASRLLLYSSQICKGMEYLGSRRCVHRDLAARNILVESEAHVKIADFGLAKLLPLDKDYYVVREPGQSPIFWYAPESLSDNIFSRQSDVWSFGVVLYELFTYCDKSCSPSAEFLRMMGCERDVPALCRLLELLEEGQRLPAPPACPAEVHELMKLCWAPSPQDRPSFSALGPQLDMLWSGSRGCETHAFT

Compound: NC(=O)c1cnc(Nc2ccc(OC(F)F)cc2)cc1NCc1cccc2[nH]ccc12 [Example 321, 4-((1H-indol-4-yl)methylamino)-6-(4-(difluoromethoxy)phenylamino)nicotinamide]
IC50 (JAK3): 10 to 100 nM | IC50 (JAK1): 100 to 1000 nM | IC50 (TYK2): > 1000 nM | inhibition at 0.2 µM [1]: 42% | inhibition at 1 µM [1]: 94% | IC50 (JAK2): 100 to 1000 nM

Compound: NC(=O)c1cnc(Nc2ccc(OC(F)(F)F)cc2)cc1NCc1cccc2[nH]ccc12 [Example 322, 4-((1H-indol-4-yl)methylamino)-6-(4-(trifluoromethoxy)phenylamino)nicotinamide]
IC50 (JAK3): 100 to 1000 nM | IC50 (JAK1): > 1000 nM | IC50 (TYK2): > 1000 nM | inhibition at 0.2 µM [1]: 27% | inhibition at 1 µM [1]: 70% | IC50 (JAK2): > 1000 nM

Compound: CS(=O)(=O)Nc1ccc(Nc2cc(NCc3ccccc3)c(C(N)=O)cn2)cc1 [Example 389]
IC50 (JAK3): 1 to 10 nM | IC50 (JAK1): 100 to 1000 nM | IC50 (TYK2): 100 to 1000 nM | inhibition at 0.2 µM [1]: 56% | inhibition at 1 µM [1]: 88% | IC50 (JAK2): 100 to 1000 nM

Compound: CCC(=O)N1CCN(c2ccc(Nc3cc(NCc4cccc(F)c4F)c(C(N)=O)cn3)cc2)CC1 [Example 435, 4-(2,3-difluorobenzylamino)-6-(4-(4-propionylpiperazin-1-yl)phenylamino)nicotinamide]
IC50 (JAK3): 1 to 10 nM | IC50 (JAK1): 100 to 1000 nM | IC50 (TYK2): 100 to 1000 nM | inhibition at 0.2 µM [1]: 63% | inhibition at 1 µM [1]: 102% | IC50 (JAK2): 10 to 100 nM

Compound: Cc1cc(Nc2cc(NCc3cccc4ccsc34)c(C(N)=O)cn2)ccc1C(=O)N1CCCC1 [Example 458, 4-(benzo[b]thiophen-7-ylmethylamino)-6-(3-methyl-4-(pyrrolidine-1-carbonyl)phenylamino)nicotinamide]
IC50 (JAK3): 1 to 10 nM | IC50 (JAK1): 100 to 1000 nM | IC50 (TYK2): 10 to 100 nM | inhibition at 0.2 µM [1]: 49% | inhibition at 1 µM [1]: 104% | IC50 (JAK2): 10 to 100 nM

Continued, in another order:

IC50 (JAK3): 1 to 10 nM | IC50 (JAK1): 10 to 100 nM | IC50 (TYK2): 100 to 1000 nM | IC50 (JAK2): 10 to 100 nM
Compound: COc1ccc(Nc2cc(NCc3cccc4[nH]ccc34)c(C(N)=O)cn2)cc1 [Example 294, 4-((1H-indol-4-yl)methylamino)-6-(4-methoxyphenylamino)nicotinamide]
inhibition at 0.2 µM [1]: 75% | inhibition at 1 µM [1]: 102%

IC50 (JAK3): 1 to 10 nM | IC50 (JAK1): 100 to 1000 nM | IC50 (TYK2): 100 to 1000 nM | IC50 (JAK2): 100 to 1000 nM
Compound: NC(=O)c1cnc(Nc2ccc(F)cc2)cc1NCc1cccc2[nH]ccc12 [Example 319, 4-((1H-indol-4-yl)methylamino)-6-(4-fluorophenylamino)nicotinamide]
inhibition at 0.2 µM [1]: 81% | inhibition at 1 µM [1]: 103%

IC50 (JAK3): 1 to 10 nM | IC50 (JAK1): 10 to 100 nM | IC50 (TYK2): 10 to 100 nM | IC50 (JAK2): 10 to 100 nM
Compound: CS(=O)(=O)c1ccc(Nc2cc(NCc3cccc4[nH]ccc34)c(C(N)=O)cn2)cc1 [Example 320, 4-((1H-indol-4-yl)methylamino)-6-(4-(methylsulfonyl)phenylamino)nicotinamide]
inhibition at 0.2 µM [1]: 90% | inhibition at 1 µM [1]: 108%

IC50 (JAK3): 1 to 10 nM | IC50 (JAK1): 100 to 1000 nM | IC50 (TYK2): 100 to 1000 nM | IC50 (JAK2): 100 to 1000 nM
Compound: CS(=O)(=O)Nc1cccc(Nc2cc(NCc3ccccc3)c(C(N)=O)cn2)c1 [Example 388]
inhibition at 0.2 µM [1]: 18% | inhibition at 1 µM [1]: 55%

IC50 (JAK3): < 1 nM | IC50 (JAK1): 100 to 1000 nM | IC50 (TYK2): 100 to 1000 nM | IC50 (JAK2): 10 to 100 nM
Compound: Cc1cc(Nc2cc(NCc3cccc4ccsc34)c(C(N)=O)cn2)ccc1C(=O)N1CCC1 [Example 457, 6-(4-(azetidine-1-carbonyl)-3-methylphenylamino)-4-(benzo[b]thiophen-7-ylmethylamino)nicotinamide]
inhibition at 0.2 µM [1]: 56% | inhibition at 1 µM [1]: 100%

IC50 (JAK3): < 1 nM | IC50 (JAK1): 1 to 10 nM | IC50 (TYK2): 1 to 10 nM | IC50 (JAK2): < 1 nM
Compound: Cc1cc(Nc2cc(NCc3cccc4[nH]ccc34)c(C(N)=O)cn2)ccc1C(=O)N1CCCC1 [Example 461, 4-((1H-indol-4-yl)methylamino)-6-(3-methyl-4-(pyrrolidine-1-carbonyl)phenylamino)nicotinamide]
inhibition at 0.2 µM [1]: 94% | inhibition at 1 µM [1]: 101%
